From ChEMBL document CHEMBL4152182, “Recent acquisitions on oxyprenylated secondary metabolites as anti-inflammatory agents” (Eur J Med Chem, 2018)
Blank lines part the entries; values can stand above or below the molecule they belong to.

Legend:
Mus musculus [1] = experiment: Anti-inflammatory activity in mouse assessed as inhibition of croton oil-induced ear edema at 0.3 umol/cm2 administered topically relative to control; format: functional
Mus musculus [2] = experiment: (§1) Anti-parkinson's activity in intranigral LPS-induced Parkinson's disease-like C57BL/6 mouse model assessed as inhibition of microglial hyperactivation by measuring IBA1 positive cells at 25 mg/kg, sc once daily for 21 days starting from day 1 post LPS treatment by immunohistochemistry relative to control; format: functional; settings: C57BL/6, sc
Mus musculus [3] = experiment: as §1, with “protection against dopaminergic neuronal loss in substantia nigra” for “inhibition of microglial hyperactivation”, “increase in TH-positive neuronal” for “IBA1 positive”; format: functional
Mus musculus [4] = experiment: Anti-parkinson's activity in intranigral LPS-induced Parkinson's disease-like C57BL/6 mouse model assessed as astrocytes activation at 25 mg/kg, sc once daily for 21 days starting from day 1 post LPS treatment by confocal fluorescence microscopic method relative to control; format: functional
Mus musculus [5] = experiment: Anti-inflammatory activity in mouse assessed as inhibition of croton oil-induced ear edema at 10 umol/cm2 administered topically relative to control; format: functional
RAW264.7 [6] = experiment: Anti-inflammatory activity in mouse RAW264.7 cells assessed as inhibition of LPS-induced NO production; format: functional, cell-based
[7] = Antitumor activity in mouse adenocarcinoma model at 500 ppm relative to control; format: functional
[8] = Antitumor activity in mouse adenocarcinoma model at 100 ppm relative to control; format: functional
Mus musculus [9] = experiment: Anti-inflammatory activity in mouse assessed as inhibition of carrageenan-induced paw edema at 10 mg/kg preincubated for 5 hrs followed by carrageenan challenge relative to control; format: functional
Neutrophil = experiment: Anti-inflammatory activity in human neutrophils assessed as inhibition of fMLP/CB-induced superoxide anion generation; format: functional, cell-based
RAW264.7 [10] = experiment: Anti-inflammatory activity in mouse RAW264.7 cells assessed as inhibition of LPS-induced COX-2 gene expression relative to control; format: functional
RAW264.7 [11] = experiment: Anti-inflammatory activity in mouse RAW264.7 cells assessed as inhibition of LPS-induced iNOS gene expression relative to control; format: functional
Mus musculus [12] = experiment: as §1, with “19.3” for “25”; format: functional; settings: C57BL/6, sc
Mus musculus [13] = experiment: Anti-parkinson's activity in intranigral LPS-induced Parkinson's disease-like C57BL/6 mouse model assessed as astrocytes activation at 19.3 mg/kg, sc once daily for 21 days starting from day 1 post LPS treatment by confocal fluorescence microscopic method relative to control; format: functional
Mus musculus [14] = experiment: as §1, with “protection against dopaminergic neuronal loss in substantia nigra” for “inhibition of microglial hyperactivation”, “increase in TH-positive neuronal” for “IBA1 positive”, “19.3” for “25”; format: functional

SMILES: CC(C)=CCOC1=CC(=O)c2ccccc2C1=O
inhibition (INH) (Mus musculus [1]): 14%

SMILES: CC(C)=CCC/C(C)=C/COc1ccc2ccc(=O)oc2c1 [AURAPTENE]
inhibition in vivo at 25 mg/kg (Mus musculus [2]): 39.1%
fold change (FC) (Mus musculus [3]): 2.2
Activity (Mus musculus [4]): 68.4%

SMILES: COc1cc(CO)cc(OC)c1OCC=C(C)C
inhibition (INH) (Mus musculus [1]): 31%
inhibition (INH) (Mus musculus [5]): 77%

IC50 (RAW264.7 [6]): 5.9 µM
SMILES: COc1c(OC/C=C(\C)CCC=C(C)C)ccc2ccc(=O)oc12 [COLLININ]

SMILES: CC(C)=CCOc1ccc(CCO)cc1 [ETROGOL]
inhibition (INH) (Mus musculus [1]): 32%
inhibition (INH) (Mus musculus [5]): 78%

SMILES: C=C(C)CCC/C(C)=C/COc1ccc(/C=C/C(=O)N[C@@H](CCCNC(=N)N[N+](=O)[O-])C(=O)O)cc1OC
Activity [7]: 94%
Activity [8]: 84%

SMILES: CC(C)=CCOc1c2occc2cc2ccc(=O)oc12 [PENTOSALEN]
inhibition in vivo at 10 mg/kg (Mus musculus [9]): 54.4%
IC50 (Neutrophil): 1.7 µM
inhibition (INH) (RAW264.7 [10]): 66.7%
inhibition (INH) (RAW264.7 [11]): 69.2%

SMILES: CC(C)=CCOc1ccc2ccc(=O)oc2c1 [7-PRENYLOXYCOUMARIN]
inhibition in vivo at 19.3 mg/kg (Mus musculus [12]): 19.1%
Activity (Mus musculus [13]): 65.3%
fold change (FC) (Mus musculus [14]): 2.2

SMILES: CC(C)=CCOc1ccc(CCCO)cc1
inhibition (INH) (Mus musculus [1]): 28%
inhibition (INH) (Mus musculus [5]): 68%
